Consider eleven compounds from patent US20250215029A1 (Recludix Pharma, Inc., priority 2022, published 2025).

SMILES strings stand for the structures. Bounds are passed on as bounds.

The target of one assay is T1, pY705-STAT3 in PBMC (Homo sapiens, UniProt P40763).
T1 construct: Cryopreserved Peripheral Blood Mononuclear Cells (PBMC) are from AllCells; host or cells: cryopreserved PBMC
Kind of assay: MSD-pSTAT-PBMC Assay (pSTAT3, IL-6 stimulated). Type of assay: cell-based. The following applies: PBMC, compound 3 hrs, then 10 ng/mL IL-6 for 10 min; Table 1114; read-out: pSTAT3. Put shortly: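 pY705-STAT3 was detected electrochemiluminescently on total-STAT3 capture plates, using lysates of human PBMCs given compound for 3 h and then IL-6 (10 ng/mL, 10 min). Values were background-subtracted against unstimulated wells and set relative to DMSO. IC50 was fitted with variable slope.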

The next assay addresses T2, pY641-STAT6 in PBMC (Homo sapiens, UniProt P42226).
T2 construct: Cryopreserved Peripheral Blood Mononuclear Cells (PBMC) are from AllCells; host or cells: cryopreserved PBMC
T2 sequence (P42226 1-847): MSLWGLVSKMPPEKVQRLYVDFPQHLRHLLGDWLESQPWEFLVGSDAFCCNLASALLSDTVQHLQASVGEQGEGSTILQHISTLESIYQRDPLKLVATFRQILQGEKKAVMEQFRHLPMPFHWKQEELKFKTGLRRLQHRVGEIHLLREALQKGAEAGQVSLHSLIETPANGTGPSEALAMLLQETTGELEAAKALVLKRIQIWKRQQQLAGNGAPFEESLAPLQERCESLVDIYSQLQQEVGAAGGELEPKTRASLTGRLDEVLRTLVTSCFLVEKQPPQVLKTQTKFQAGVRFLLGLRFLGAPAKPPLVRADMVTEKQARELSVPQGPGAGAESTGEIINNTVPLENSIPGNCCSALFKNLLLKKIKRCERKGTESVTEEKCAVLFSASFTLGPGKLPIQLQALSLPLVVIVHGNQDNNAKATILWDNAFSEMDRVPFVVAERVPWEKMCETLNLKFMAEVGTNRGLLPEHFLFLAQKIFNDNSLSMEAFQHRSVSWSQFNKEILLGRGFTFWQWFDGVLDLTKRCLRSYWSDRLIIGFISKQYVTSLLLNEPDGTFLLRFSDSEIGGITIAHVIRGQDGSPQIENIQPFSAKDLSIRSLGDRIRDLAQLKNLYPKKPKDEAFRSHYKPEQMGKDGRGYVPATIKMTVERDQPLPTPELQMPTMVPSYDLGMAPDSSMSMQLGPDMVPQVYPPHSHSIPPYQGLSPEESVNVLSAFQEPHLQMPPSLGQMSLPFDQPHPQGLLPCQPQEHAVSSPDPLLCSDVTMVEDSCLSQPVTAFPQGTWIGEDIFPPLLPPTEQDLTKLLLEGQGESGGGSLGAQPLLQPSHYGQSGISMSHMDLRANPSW
Kind of assay: MSD-pSTAT-PBMC Assay (pSTAT6, IL-4 stimulated). It is filed as cell-based. The following applies: PBMC, compound 3 hrs, then 1 ng/mL IL-4 for 10 min; Table 1114; read-out: pSTAT6. Put shortly:
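Thawed human PBMC rested overnight in IMDM/10% FBS, then got compound for 3 hrs before a 10 min cytokine pulse: 1 ng/mL IL-4 for pSTAT6, 10 ng/mL IL-6 for pSTAT3. Lysates went to MSD sandwich capture on total STAT6 or STAT3 with phospho-specific detection. IC50 came from background-subtracted, DMSO-normalized signal.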

T1 sequence (P40763 whole entry): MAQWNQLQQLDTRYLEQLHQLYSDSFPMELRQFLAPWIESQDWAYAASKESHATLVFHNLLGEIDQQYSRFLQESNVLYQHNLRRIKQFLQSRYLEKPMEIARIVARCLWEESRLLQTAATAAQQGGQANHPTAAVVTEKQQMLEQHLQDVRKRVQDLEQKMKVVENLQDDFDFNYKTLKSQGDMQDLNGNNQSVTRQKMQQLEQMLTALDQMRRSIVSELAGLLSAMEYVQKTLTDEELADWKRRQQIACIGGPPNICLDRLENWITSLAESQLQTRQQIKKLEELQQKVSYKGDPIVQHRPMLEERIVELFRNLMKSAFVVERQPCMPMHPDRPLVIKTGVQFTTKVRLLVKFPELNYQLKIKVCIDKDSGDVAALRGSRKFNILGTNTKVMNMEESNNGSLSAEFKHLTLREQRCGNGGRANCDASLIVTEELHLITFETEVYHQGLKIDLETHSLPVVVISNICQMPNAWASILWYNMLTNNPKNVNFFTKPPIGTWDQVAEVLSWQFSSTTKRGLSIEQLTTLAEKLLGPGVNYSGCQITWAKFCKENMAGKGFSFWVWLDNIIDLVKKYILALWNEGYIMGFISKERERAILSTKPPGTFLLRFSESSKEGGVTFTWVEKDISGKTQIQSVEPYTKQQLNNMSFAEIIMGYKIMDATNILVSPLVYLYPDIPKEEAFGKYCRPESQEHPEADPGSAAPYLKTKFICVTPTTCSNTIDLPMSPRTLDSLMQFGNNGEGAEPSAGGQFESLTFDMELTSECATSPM

Take `CC(C)OC(=O)OCOP(=O)(Cc1ccc2sc(C(=O)N[C@H]3CCCC[C@H]4CC[C@@H](C(=O)N5C[C@@H](C#N)[C@H](c6ccccc6)C5)N4C3=O)cc2c1)OCOC(=O)OC(C)C` (single isomer, unassigned) [Compound 148, ((((2-(((3S,6S,10aS)-3-((3S,4R or 3R,4S)-3-cyano-4-phenylpyrrolidine-1-carbonyl)-5-oxodecahydro-pyrrolo[1,2-a]azocin-6-yl)carbamoyl)benzo[b]thiophen-5-yl)methyl)phosphoryl)bis(oxy))bis(methylene) diisopropyl bis(carbonate)]: the IC50 was over 3000 nM on pY705-STAT3 in PBMC and 100 to 1000 nM on pY641-STAT6 in PBMC.

For `CC(C)(C)C(=O)SCCOP(=O)(Cc1ccc2sc(C(=O)N[C@H]3CCCC[C@H]4CC[C@@H](C(=O)N5C[C@@H](C#N)[C@H](c6ccccc6)C5)N4C3=O)cc2c1)OCCSC(=O)C(C)(C)C` (single isomer, unassigned) [Compound 149, S,S′-(((((2-(((3S,6S,10aS)-3-((3S,4R or 3R,4S)-3-cyano-4-phenylpyrrolidine-1-carbonyl)-5-oxodecahydro-pyrrolo[1,2-a]azocin-6-yl)carbamoyl)benzo[b]thiophen-5-yl)methyl)phosphoryl)bis (oxy))bis(ethane-2,1-diyl))bis(2,2-dimethyl-propanethioate)], the IC50 at pY705-STAT3 in PBMC and on pY641-STAT6 in PBMC was over 3000 nM each time.

For the compound `CCCC(=O)SCCOP(=O)(OCCSC(=O)CCC)C(F)(F)c1ccc2sc(C(=O)N[C@H]3CCCC[C@H]4CC[C@@H](C(=O)N5C[C@@H](C#N)[C@H](c6ccccc6)C5)N4C3=O)cc2c1` (single isomer, unassigned) [Compound 152, S,S′-(((((2-(((3S,6S,10aS)-3-((3S,4R or 3R,4S)-3-cyano-4-phenylpyrrolidine-1-carbonyl)-5-oxodecahydro-pyrrolo[1,2-a]azocin-6-yl)carbamoyl)benzo[b]thiophen-5-yl)difluoromethyl)phosphoryl)bis(oxy))bis(ethane-2,1-diyl)) dibutanethioate], the figures for the IC50 on pY705-STAT3 in PBMC and at pY641-STAT6 in PBMC were 1000 to 3000 nM and 100 to 1000 nM, respectively.

As for `CC(C)CC(=O)SCCCCOP(=O)(OCCCCSC(=O)CC(C)C)C(F)(F)c1ccc2sc(C(=O)N[C@H]3CCCC[C@H]4CC[C@@H](C(=O)N5CC(C#N)C(c6ccccc6)C5)N4C3=O)cc2c1` (single isomer, unassigned) [Compound 153, S,S′-(((((2-(((3S,6S,10aS)-3-((3S,4R or 3R,4S)-3-cyano-4-phenylpyrrolidine-1-carbonyl)-5-oxodecahydro-pyrrolo[1,2-a]azocin-6-yl)carbamoyl)benzo[b]thiophen-5-yl)difluoromethyl)phosphoryl)bis (oxy))bis(butane-4,1-diyl)) bis(3-methylbutane thioate)], the IC50 on pY705-STAT3 in PBMC and at pY641-STAT6 in PBMC was over 3000 nM each time.

`CC(C)CC(=O)SCCOP(=O)(OCCSC(=O)CC(C)C)C(F)(F)c1ccc2sc(C(=O)N[C@H]3CCCC[C@H]4CC[C@@H](C(=O)N5C[C@@H](C#N)[C@H](c6cc[nH]c(=O)c6)C5)N4C3=O)cc2c1` (single isomer, unassigned) [Compound 154, S,S′-(((((2-(((3S,6S,10aS)-3-((3S,4R or 3R,4S)-3-cyano-4-(2-oxo-1,2-dihydropyridin-4-yl)pyrrolidine-1-carbonyl)-5-oxodecahydro-pyrrolo[1,2-a]azocin-6-yl)carbamoyl)benzo [b]thiophen-5-yl)difluoromethyl)phosphoryl)bis (oxy))bis(ethane-2,1-diyl)) bis(3-methylbutane thioate)]: the IC50 at pY705-STAT3 in PBMC and on pY641-STAT6 in PBMC was 100 to 1000 nM in each case.

With `CC(C)CC(=O)SCCOP(=O)(OCCSC(=O)CC(C)C)C(F)(F)c1ccc2ccc(C(=O)N[C@H]3CCCC[C@H]4CC[C@@H](C(=O)N5C[C@H](c6cc[nH]c(=O)c6)[C@@H](C#N)C5)N4C3=O)cc2c1` (single isomer, unassigned) [Compound 155, S,S′-(((((7-(((3S,6S,10aS)-3-((3R,4S or 3S,4R)-3-cyano-4-(2-oxo-1,2-dihydropyridin-4-yl)pyrrolidine-1-carbonyl)-5-oxodecahydro-pyrrolo[1,2-a]azocin-6-yl)carbamoyl)naphthalen-2-yl)difluoromethyl)phosphoryl)bis(oxy))bis(ethane-2,1-diyl)) bis(3-methylbutane thioate)], the results for the IC50 at pY705-STAT3 in PBMC and on pY641-STAT6 in PBMC were 100 to 1000 nM and under 100 nM, respectively.

Consider `CC(C)C(=O)SCCOP(=O)(OCCSC(=O)C(C)C)C(F)(F)c1ccc2sc(C(=O)N[C@H]3CCCCC4CC[C@@H](C(=O)N5C[C@H](c6ccccc6)[C@@H](C#N)C5)N4C3=O)cc2c1` (single isomer, unassigned) [Compound 156, S,S′-(((((2-(((3S,6S,10aS)-3-((3S,4R or 3R,4S)-3-cyano-4-phenylpyrrolidine-1-carbonyl)-5-oxodecahydro-pyrrolo[1,2-a]azocin-6-yl)carbamoyl)benzo[b]thiophen-5-yl)difluoromethyl)phosphoryl)bis(oxy))bis(ethane-2,1-diyl)) bis(2-methylpropane-thioate)], for which the IC50 on pY705-STAT3 in PBMC was 100 to 1000 nM; on pY641-STAT6 in PBMC, under 100 nM.

With `CC(C)(C(=O)SCCOP(=O)(OCCSC(=O)C(C)(C)C(F)(F)F)C(F)(F)c1ccc2sc(C(=O)N[C@H]3CCCC[C@H]4CC[C@@H](C(=O)N5C[C@@H](C#N)[C@H](c6ccccc6)C5)N4C3=O)cc2c1)C(F)(F)F` (single isomer, unassigned) [Compound 159, S,S′-(((((2-(((3S,6S,10aS)-3-((3S,4R or 3R,4S)-3-cyano-4-phenylpyrrolidine-1-carbonyl)-5-oxodecahydro-pyrrolo[1,2-a]azocin-6-yl)carbamoyl)benzo[b]thiophen-5-yl)difluoromethyl)phosphoryl)bis(oxy))bis(ethane-2,1-diyl)) bis(3,3,3-trifluoro-2,2-dimethylpropane-thioate)], the IC50 at pY705-STAT3 in PBMC and on pY641-STAT6 in PBMC was over 3000 nM throughout.

Consider `CC(C)CC(=O)SCCOP(=O)(OCCSC(=O)CC(C)C)C(F)(F)c1ccc2sc(C(=O)N[C@H]3CCCC(C)[C@H]4CC[C@@H](C(=O)N5C[C@H](c6cc[nH]c(=O)c6)[C@@H](C#N)C5)N4C3=O)cc2c1` (single isomer, unassigned) [Compound 162, S,S′-(((((2-(((3S,6S,10aR)-3-((3R,4S or 3S,4R)-3-cyano-4-(2-oxo-1,2-dihydropyridin-4-yl)pyrrolidine-1-carbonyl)-10-methyl-5-oxodeca-hydropyrrolo[1,2-a]azocin-6-yl)carbamoyl)benzo [b]thiophen-5-yl)difluoromethyl)phosphoryl)bis(oxy))bis(ethane-2,1-diyl)) bis(3-methylbutane thioate)], for which the IC50 at pY705-STAT3 in PBMC and at pY641-STAT6 in PBMC was 100 to 1000 nM throughout.

In the case of `CC(C)CC(=O)SCCOP(=O)(OCCSC(=O)CC(C)C)C(F)(F)c1ccc2sc(C(=O)N[C@H]3CCCCC4CC[C@@H](C(=O)N5C[C@H](c6ccccc6)[C@@H](C#N)C5)N4C3=O)cc2c1` (single isomer, unassigned) [Compound 163, S,S′-(((((2-(((3S,6S,10aS)-3-((3R,4S or 3S,4R)-3-cyano-4-phenylpyrrolidine-1-carbonyl)-5-oxodecahydro-pyrrolo[1,2-a]azocin-6-yl)carbamoyl)benzo[b]thiophen-5-yl)difluoromethyl)phosphoryl)bis(oxy))bis(ethane-2,1-diyl)) bis(3-methylbutane thioate)], the IC50 was over 3000 nM at pY705-STAT3 in PBMC and under 100 nM on pY641-STAT6 in PBMC.

With `CC(C)OC(=O)OCOP(=O)(OCOC(=O)OC(C)C)[C@H](F)c1ccc2sc(C(=O)N[C@H]3CCCC[C@H]4CC[C@@H](C(=O)N5C[C@H](c6cc[nH]c(=O)c6)[C@@H](C#N)C5)N4C3=O)cc2c1` (single isomer, unassigned) [Compound 164], the IC50 on pY705-STAT3 in PBMC and at pY641-STAT6 in PBMC was 100 to 1000 nM each time.
